Usually IC50 stands for the concentration that inhibits the measured activity by half.

This assay addresses T1, hmGluR1 receptor (Homo sapiens, UniProt Q13255).
T1 construct: expressed in transfected cells
In words: IC50 determination: intracellular calcium mobilization (FLIPR) upon Quisqualate stimulation in CHO cells stably expressing hmGluR1. In kind it is cell-based. The following applies: against Quisqualate 1 μM (EC80). As for the experimental part:
A CHO cell line stably expressing hmGluR1 receptor was established. One day prior to assay, cells were split in growth media at concentration of 50,000 cells/well in a volume of 100 μl and seeded into black clear-bottom 96-well plates. After two to six hours, when cells were well attached to the plate, growth medium was replaced with assay medium (100 μL) consisting of DMEM high glucose, supplemented with GPT (1 U/mL) and Sodium pyruvate, 1 mM. Following overnight incubation, medium was discarded and cells were loaded for 2 h with dye from the Calcium 3 Assay Reagent Kit (Molecular Devices, # R8033), prepared according to manufacturers' instructions. […] Test compounds were added 10 minutes before Quisqualate.
A general note: Calcium flux is commonly read through the fluorescence of an indicator in the cells.

Where [1] appears, read: class symbols, read-out: mGIuR 1 IC50.
Setting [2] is: FLIPR calcium mobilization, read-out: IC50 Class.
The mark [3] stands for this setting: FLIPR calcium mobilization, read-out: mGluR1 IC50.

Molecules are shown by their SMILES. Like-named read-outs stand apart in the source and are kept apart here. Bounds are passed on as bounds.

T1 sequence (Q13255 19-1194): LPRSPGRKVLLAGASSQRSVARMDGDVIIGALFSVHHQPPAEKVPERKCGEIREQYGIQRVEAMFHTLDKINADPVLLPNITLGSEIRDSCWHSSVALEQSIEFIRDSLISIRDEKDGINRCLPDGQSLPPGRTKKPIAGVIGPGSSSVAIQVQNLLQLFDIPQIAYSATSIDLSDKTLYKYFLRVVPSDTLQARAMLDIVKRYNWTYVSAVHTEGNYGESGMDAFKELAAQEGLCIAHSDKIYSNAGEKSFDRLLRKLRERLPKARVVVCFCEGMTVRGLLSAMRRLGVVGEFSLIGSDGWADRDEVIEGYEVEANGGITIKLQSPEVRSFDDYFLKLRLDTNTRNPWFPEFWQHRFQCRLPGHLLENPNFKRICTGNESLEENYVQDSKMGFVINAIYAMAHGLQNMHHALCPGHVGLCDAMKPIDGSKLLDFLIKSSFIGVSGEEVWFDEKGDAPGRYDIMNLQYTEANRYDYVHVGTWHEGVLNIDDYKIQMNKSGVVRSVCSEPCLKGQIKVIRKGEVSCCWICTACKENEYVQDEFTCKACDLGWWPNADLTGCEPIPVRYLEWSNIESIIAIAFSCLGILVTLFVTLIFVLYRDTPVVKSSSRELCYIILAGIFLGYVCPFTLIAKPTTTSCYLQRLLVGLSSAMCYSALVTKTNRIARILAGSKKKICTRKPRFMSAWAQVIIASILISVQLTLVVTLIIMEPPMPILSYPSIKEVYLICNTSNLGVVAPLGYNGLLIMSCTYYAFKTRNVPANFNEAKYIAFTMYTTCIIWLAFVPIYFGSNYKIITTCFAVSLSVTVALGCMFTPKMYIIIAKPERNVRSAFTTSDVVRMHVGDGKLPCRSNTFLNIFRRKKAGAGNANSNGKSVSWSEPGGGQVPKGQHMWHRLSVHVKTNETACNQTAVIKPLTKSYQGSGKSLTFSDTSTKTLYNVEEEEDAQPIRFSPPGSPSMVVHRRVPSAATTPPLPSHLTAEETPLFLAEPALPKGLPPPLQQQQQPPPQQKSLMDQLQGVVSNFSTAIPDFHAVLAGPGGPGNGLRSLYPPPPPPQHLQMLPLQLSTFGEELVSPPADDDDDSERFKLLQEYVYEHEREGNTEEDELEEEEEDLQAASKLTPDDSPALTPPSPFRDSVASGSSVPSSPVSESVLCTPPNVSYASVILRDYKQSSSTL

Consider `Cc1cc(N(C)C)c2c(n1)sc1c(=O)n(-c3cccc(Br)c3)cnc12` [7DN], for which the IC50 under setting [1] was 0.05 to 0.15 µM.
`COCCn1cnc2c(sc3ncnc(NCC(F)(F)F)c32)c1=O` [95DY]: the IC50 under setting [2] is above 1 µM.
Regarding `O=c1c2sc3nccc(OS(=O)(=O)C(F)(F)F)c3c2ncn1C1CCCCC1` [27A], the IC50 under setting [1] was above 1 µM.
As for `O=c1c2sc3nccc(NC4CC4)c3c2ncn1-c1ccc2occc2c1` [28BI], the IC50 under setting [2] was below 0.05 µM.
Consider `C=CCNc1ncnc2sc3c(=O)n(-c4ccc(Cl)cc4)cnc3c12` [95BP], for which the IC50 under setting [2] was below 0.05 µM and the concentration for half-maximal inhibition (IC50) under setting [3] was found to be 0.00131 µM.
With `COc1cccc(-n2cnc3c(sc4nccc(N(C)C)c43)c2=O)c1` [7AA], under setting [1], the half-inhibitory concentration (IC50) was below 0.05 µM.
With `Cc1ccc(-n2cnc3c(sc4nccc(NCCCCO)c43)c2=O)cc1` [28CT], the half-inhibitory concentration (IC50) under setting [2] was below 0.05 µM.
On to `Cc1cc(F)cc(-n2cnc3c(sc4nccc(N(C)C)c43)c2=O)c1` [7DX], for which the concentration for half-maximal inhibition (IC50) under setting [1] is below 0.05 µM.
Same read-out and setting: as for `CCCNc1ccnc2sc3c(=O)n(-c4ccc(OC)cc4)cnc3c12` [28AR], the figure is below 0.05 µM.
The same measure, in the same setting: as for `COc1ccc(Cn2c3nccc(N(C)C)c3c3ncn(-c4ccc(C)cc4)c(=O)c32)cc1` [134H], the figure is above 1 µM; as for `CN(C)c1ccnc2sc3c(=O)n(NC(=O)C4CCC4)c(C4CCC4)nc3c12` [65D], above 1 µM.
In the case of `CCc1ccnc2sc3c(=O)n(-c4ccc(OC)cc4)cnc3c12` [29I], under setting [2], the IC50 was below 0.05 µM.
`COc1ccc(-n2cnc3c(sc4ncnc(Nc5ccccc5Cl)c43)c2=O)cc1` [190N]: the half-maximal inhibitory concentration (IC50) under setting [2] was above 1 µM.
`Cc1ccc(-n2cnc3c(sc4nc(N5CCNCC5)cc(N(C)C)c43)c2=O)cc1` [59B]: the IC50 under setting [1] is above 1 µM.
Regarding `CN(C)c1ccnc2sc3c(=O)n(-c4ccc5c(c4)OCO5)cnc3c12` [7A], the IC50 under setting [1] was below 0.05 µM.
`CC(CO)Nc1ccnc2sc3c(=O)n(-c4ccc(Br)cc4)cnc3c12` (centres unmarked) [28HC]: under setting [2], the IC50 fell in the range of 0.05 to 0.15 µM.
Same read-out and setting: as for `CCNc1ccnc2sc3c(=O)n(-c4ccc(OC)c(F)c4)cnc3c12` [28FZ], the figure is below 0.05 µM.
In the case of `C=CCn1cnc2c(sc3nccc(N(C)C)c32)c1=O` [7AB], the IC50 under setting [1] is 0.15 to 1 µM.
Same read-out and setting: to `CN(C)c1ccnc2sc3c(=O)n(-c4ccc5c(c4)NC(=O)CO5)cnc3c12` [7BO] belongs below 0.05 µM.
As to `CNc1ncnc2sc3c(=O)n(-c4ccc(F)cc4)cnc3c12` [95DC], the IC50 under setting [2] is below 0.05 µM.
Turning to `Cc1ccc(-n2cnc3c(sc4nc(N5CCN(C)CC5)cc(N(C)C)c43)c2=O)cc1` [59A], the IC50 under setting [1] was above 1 µM.
As for `COc1ccc(-n2cnc3c(sc4nccc(OC)c43)c2=O)cc1F` [28FX], under setting [2], the 50% inhibitory concentration (IC50) is 0.15 to 1 µM.
With `C=CCNc1ccnc2sc3c(=O)n(C4CCCCC4)cnc3c12` [72B], the IC50 under setting [1] is below 0.05 µM.
Still for that read-out and setting: as for `CNc1c(Br)cnc2sc3c(=O)n(C4CCCCC4)cnc3c12` [compound 44], the figure is below 0.05 µM; as for `COc1ccnc2sc3c(=O)n(-c4ccc5scnc5c4)cnc3c12` [25D], 0.15 to 1 µM; as for `COc1ccc(-n2cnc3c(sc4nccc(N(C)C)c43)c2=O)c(F)c1` [7DK], below 0.05 µM.
Still for that read-out and setting: as for `CN(C)c1cncc2sc3c(=O)n(-c4ccc(Cl)cc4)cnc3c12` [37E], the figure is below 0.05 µM.
Turning to `COc1ncnc2sc3c(=O)n(-c4ccc(Cl)cc4)cnc3c12` [95FO], the IC50 under setting [2] lay in the range of 0.15 to 1 µM.
On the same count and under the same terms, to `CNc1ccnc2sc3c(=O)n(-c4ccc5c(c4)CCO5)cnc3c12` [28BR] belongs below 0.05 µM.
Still for that read-out and setting: as for `COc1ccc(-n2cnc3c(sc4nc(Cl)cc(NC5CC5)c43)c2=O)cc1` [57D], the figure is 0.15 to 1 µM.
Regarding `CN(C)c1ccnc2sc3c(=O)n(N)c(-c4ccccc4)nc3c12` [65E], the IC50 under setting [1] is above 1 µM.
Take `Cc1ccc(-n2cnc3c(sc4nccc(CN(CC5CC5)CC5CC5)c43)c2=O)cc1` [169B]: the IC50 under setting [2] is above 1 µM.
Still for that read-out and setting: as for `CC(C)Nc1ccnc2sc3c(=O)n(-c4ccc(F)cc4)cnc3c12` [28GX], the figure is 0.15 to 1 µM.
In the case of `Cc1nc2cc(-n3cnc4c(sc5nccc(N(C)C)c54)c3=O)ccc2s1` [7AT], under setting [1], the IC50 was above 1 µM.
On the same count and under the same terms, to `CNc1ccnc2sc3c(=O)n(-c4ccc(OC)c(F)c4)cnc3c12` [7CA] belongs below 0.05 µM; to `CCNc1ncnc2sc3c(=O)n(-c4ccc5c(c4)CCO5)cnc3c12` [95AC], below 0.05 µM; to `CN(C)c1ccnc2sc3c(=O)n(-c4ccc5[nH]nnc5c4)cnc3c12` [7AO], 0.15 to 1 µM.
With `CSc1ccc(-n2cnc3c(sc4nccc(N(C)C)c43)c2=O)cc1` [7CQ], under setting [1], the IC50 is below 0.05 µM.
Still for that read-out and setting: to `CN(C)c1ccnc2sc3c(=O)n(-c4ccc(C5CC5)cc4)cnc3c12` [137A] belongs below 0.05 µM; to `CCNc1ccnc2sc3c(=O)n(C4CCCCC4)cnc3c12` [28P], below 0.05 µM; to `O=c1c2sc3nccc(N4CCCCC4)c3c2ncn1C1CCCCC1` [28L], above 1 µM.
The same measure, in the same setting: to `Cc1cccc(-n2cnc3c(sc4nccc(N(C)C)c43)c2=O)c1` [7CU] belongs below 0.05 µM.
Regarding `C=C(C)CNc1ncnc2sc3c(=O)n(-c4ccc(Cl)cc4)cnc3c12` [95EZ], the IC50 under setting [2] was below 0.05 µM.
Turning to `O=c1c2sc3ncnc(NC4CC4)c3c2ncn1-c1ccc(Br)cc1` [95AU], the IC50 reads like this: under setting [2], below 0.05 µM; under setting [3], 0.00137 µM.
Regarding `COc1ccnc2sc3c(=O)n(-c4ccc5c(c4)CCO5)cnc3c12` [25F], under setting [2], the IC50 lay in the range of 0.15 to 1 µM.
As for `COc1ccc(-n2cnc3c(sc4nc(N)cc(NC5CC5)c43)c2=O)cc1` [59G], the IC50 under setting [2] was below 0.05 µM.
On the same count and under the same terms, to `COc1ccc(Nc2ncnc3sc4c(=O)n(-c5ccc(F)cc5)cnc4c23)cc1` [95GK] belongs above 1 µM.
Regarding `CCNc1ccnc2sc3c(=O)n(-c4ccc5c(c4)OCCO5)cnc3c12` [28BY], the IC50 under setting [2] was below 0.05 µM.
For `CC(=O)Oc1ccc(-n2cnc3c(sc4nccc(N(C)C)c43)c2=O)cc1` [compound 138], under setting [1], the 50% inhibitory concentration (IC50) is below 0.05 µM.
Consider `Cc1ccc(-n2cnc3c(sc4nc(N5CCCC5)nc(N)c43)c2=O)cc1` [71C], for which, under setting [2], the IC50 was above 1 µM.
For the compound `Cc1ccc(-n2cnc3c(sc4nccc(NCCN(C)C)c43)c2=O)cc1` [28BA], under setting [1], the IC50 is 0.15 to 1 µM.
Take `C=CCN(C)c1ccnc2sc3c(=O)n(-c4ccc(Cl)cc4)cnc3c12` [28DZ]: the IC50 under setting [2] is below 0.05 µM and the IC50 under setting [3] is 0.00108 µM.
Take `O=c1c2sc3ncnc(NC4CC4)c3c2ncn1-c1ccc2c(c1)CCO2` [95DK]: the IC50 under setting [2] was below 0.05 µM.
On to `CN(C)c1ccnc2sc3c(=O)n(-c4cccc5nonc45)cnc3c12` [7BR], for which the IC50 under setting [1] is 0.15 to 1 µM.
With `C=C(C)CNc1ncnc2sc3c(=O)n(-c4ccc(OC)c(F)c4)cnc3c12` [95FB], the IC50 under setting [2] was 0.05 to 0.15 µM.
On the same count and under the same terms, to `CNc1ccnc2sc3c(=O)n(-c4ccc(F)cc4)cnc3c12` [28IB] belongs below 0.05 µM; to `COCCNc1ncnc2sc3c(=O)n(-c4ccc(Cl)cc4)cnc3c12` [95DI], below 0.05 µM.
Consider `Cc1nc(N)c2c(n1)sc1c(=O)n(-c3ccc(Cl)cc3)cnc12` [95EV], for which the IC50 under setting [2] is below 0.05 µM.
On the same count and under the same terms, to `COc1ccc(-n2cnc3c(sc4nc(Cl)cc(N)c43)c2=O)cc1` [59I] belongs 0.05 to 0.15 µM.
`COc1ccc(-n2cnc3c4c(N(C)C)ccnc4n(C)c3c2=O)cc1` [134B]: the IC50 under setting [1] is 0.15 to 1 µM.
Still for that read-out and setting: to `CN(C)c1ccnc2sc3c(=O)n(-c4nnc(C(F)(F)F)s4)cnc3c12` [15AF] belongs 0.15 to 1 µM; to `CCCCc1nc2c(sc3nccc(N(C)C)c32)c(=O)n1-c1ccc(C)cc1` [116C], 0.15 to 1 µM; to `CN(C)c1ccnc2sc3c(=O)n(N4CCCCC4)cnc3c12` [60A], below 0.05 µM.
Same read-out and setting: as for `CN(C)c1cncc2sc3c(=O)n(-c4ccc5c(c4)OCCO5)cnc3c12` [37C], the figure is 0.05 to 0.15 µM.
`NC(=O)CNc1ccnc2sc3c(=O)n(-c4ccc(F)cc4)cnc3c12` [28GG]: under setting [2], the IC50 was in the range of 0.15 to 1 µM.
`CN(N)c1ccnc2sc3c(=O)n(-c4ccc(Cl)cc4)cnc3c12` [28DM]: the IC50 under setting [2] is above 1 µM.
In the case of `C=C(C)CNc1ccnc2sc3c(=O)n(-c4ccc(Cl)cc4)cnc3c12` [28FD], under setting [2], the IC50 was below 0.05 µM.
Still for that read-out and setting: as for `COCCn1cnc2c(sc3ncnc(NC4CCC4)c32)c1=O` [95DW], the figure is above 1 µM; as for `CN(C)c1ncnc2sc3c(=O)n(-c4ccc(Br)cc4F)cnc3c12` [95AR], below 0.05 µM.
Consider `CN(C)c1cc(N2CCCC2)nc2sc3c(=O)n(C4CCCCC4)cnc3c12` [compound 85], for which the IC50 under setting [1] was above 1 µM.
For the compound `COCCNc1nncc2sc3c(=O)n(-c4ccc(C)cc4)cnc3c12` [167D], under setting [2], the IC50 was above 1 µM.
Consider `CCOC(=O)c1cnc2sc3c(=O)n(-c4ccc(C)cc4)cnc3c2c1` [144A], for which, under setting [1], the IC50 is 0.05 to 0.15 µM.
On to `C#CCN(C)c1ccnc2sc3c(=O)n(-c4ccc(OC)cc4)cnc3c12` [28DU], for which the IC50 under setting [2] is below 0.05 µM.
In the case of `CN(C)c1cccc2sc3c(=O)n(-c4cc(Cl)cc(Cl)c4)cnc3c12` [103K], under setting [2], the IC50 is above 1 µM.
With `CN(C)c1ccnc2sc3c(=O)n(Cc4ccco4)cnc3c12` [15H], under setting [1], the 50% inhibitory concentration (IC50) is 0.15 to 1 µM.
Consider `C=CCOc1ccnc2sc3c(=O)n(-c4ccc(Br)cc4)cnc3c12` [66J], for which, under setting [2], the half-inhibitory concentration (IC50) was below 0.05 µM.
Regarding `CCNc1ccnc2sc3c(=O)n(-c4ccc(F)cc4)cnc3c12` [28HY], under setting [2], the IC50 is below 0.05 µM.
Still for that read-out and setting: to `C=CCOc1ccnc2sc3c(=O)n(-c4ccc(Cl)cc4)cnc3c12` [66F] belongs below 0.05 µM; to `COc1ccnc2sc3c(=O)n(-c4ccc(Cl)cc4)cnc3c12` [28FS], below 0.05 µM.
On the same count and under the same terms, as for `O=c1c2sc3ncnc(NCC4CC4)c3c2ncn1-c1ccc(Br)cc1` [95DS], the figure is 0.15 to 1 µM.
Same read-out and setting: to `Cc1ccc(-n2cnc3c(sc4nccc(NCCC(C)O)c43)c2=O)cc1` (centres unmarked) [28CY] belongs below 0.05 µM.
As for `COc1ccnc2sc3c(=O)n(-c4ccc(C)cc4)cnc3c12` [25C], under setting [1], the IC50 lay in the range of 0.05 to 0.15 µM.
For `C#CCNc1ncnc2sc3c(=O)n(-c4ccc(Cl)cc4)cnc3c12` [95EG], the half-maximal inhibitory concentration (IC50) under setting [2] was below 0.05 µM.

The values are drawn from patent US7989464B2, “mGluR1 antagonists as therapeutic agents” (Schering Corporation, priority 2004, dated 2011).
